Reference: patent US20240368557A1, “STEM CELL-DERIVED ALPHA CELLS AND METHODS OF GENERATING SAME” (President and Fellows of Harvard College, priority 2018, published 2024)

Key:
Type in all cases: cell-based, human
[1] = system: HUES8-derived polyhormonal cells; assay: small-molecule phenotypic screen on polyhormonal cells (high-content imaging of pro/insulin and pro/glucagon); conditions: 96 hours incubation, quintuplicate
Experimental: (§1) Toward this goal, we initiated a small-molecule phenotypic screen to identify compounds that either promote alpha cell identity or conversely reduce proinsulin expression in vitro. Briefly, HUES8 cells were differentiated using our polyhormonal optimized protocol. Cells were dispersed and arrayed into a 384-well plate and compounds were introduced. HUES8-derived polyhormonal cells were co-incubated with a compound library for 96 hours, after which the cells were fixed and stained for pro/glucagon and pro/insulin. High-content imaging was used to quantify the percentage of cells expressing each hormone individually and the percentage of polyhormonal cells as marked by the co-expression of both hormones (FIGS. 3A-3B). In total 43 compounds were evaluated in quintuplicate. […] To confirm that the effects of this compound were not unique to the assay format, PdbU was evaluated in the final stage of the directed differentiation protocol.
Polyhormonal cells were dispersed using TrypLE Express for 15 minutes and quenched using S3 media. The resulting single cell suspension was arrayed into a 384 well plate which had been coated with Matrigel with 50,000 cells in each well. Compounds were introduced each to 5 separate wells and incubated for 96 hours after which cells were fixed with 4% PFA and stained for pro/insulin and pro/glucagon as described above with the following modifications. Antibody incubations and washes were performed using a BioTek EL405 Plate washer and dispenser. Cells were imaged with the cellomics array scan high content imaging system. Nine fields of view were captured for each well and analyzed for cell number and fluorescent content. The percentage of cells expressing pro/insulin and pro/glucagon was calculated for each well.

[2] = system: HUES8 cells differentiated to SC-beta cells; assay: PdbU treatment of stage 6 SC-beta cell differentiation, flow cytometry
Description: FIG. 7 provides flow cytometry of HUES8 cells differentiated to SC-beta cells and treated with PdbU for 14 days during stage 6.
Differentiation of hPSCs to beta cells results in a side population of polyhormonal cells. To this end we evaluated the effect of PKC activation on the differentiation of SC-beta cells. […] However, when treated with PdbU, the polyhormonal side population in the differentiation was reduced, and the percentage of monohormonal alpha cells was increased.
Cells were collected for flow cytometry analysis at various time points throughout the differentiation process. Cells were dispersed with TrypLE Express at 37° C. for 15 minutes after which trypsin was quenched with serum containing media (S1, S2, or S3). Cells were fixed in 4% PFA for 20 minutes and subsequently stored in PBS at 4° C. until staining. Staining was performed by first permeabilizing the cells in block solution (PBS+0.1% Triton X-100+5% donkey serum) for 40 minutes. Cells were then incubated with primary antibodies in block solution for 1 hour at RT, washed twice with PBST and incubated with secondary antibody in block solution for 1 hour at RT. Cells were then washed in three times and resuspended in PBST at a concentration of 1×10^6 cells/ml. Stained cells were analyzed using the Accuri C6 or Attune flow cytometers. Antibody concentrations used were as follows. Pro/insulin was assessed using an antibody that recognizes the c-peptide epitope from the Iowa Hybridoma Bank and used at a concentration of 1:300. Pro/glucagon was assessed using an antibody that recognizes the GLP-2 (Santa Cruz) or glucagon (Manufacturer) epitopes and used at a concentration of 1:300. Secondary antibodies used were a donkey-anti-goat-Alexaflour 488 (1:500) and a donkey-anti-rat-Alexaflour 647 (1:500).

polyhormonal cells = assay: PKC activator treatment in final stage (stage 6) of directed differentiation, flow cytometry
Experimental: as §1
To test the specificity of PKC activation on the results shown above, we compiled a small library of known PKC activators and evaluated their ability to similarly decrease insulin expression in polyhormonal cells. […] To that end, we treated polyhormonal cells for 28 days with either vehicle or each PKC activator and assessed the percentage of monohormonal expressing alpha cells at the end of the 28-day treatment. […]

SC-alpha cells = assay: glucagon secretion of SC-alpha cells with glucagon secretion modulators
Description: To evaluate the ability of SC-alpha cells to respond to physiological conditions, we screened a number of glucagon secretion modulators and evaluated the effect on glucagon secretion. In the human islet, alpha cells secrete glucagon in response to low glucose conditions. […] Additionally, alpha cells respond to paracrine inhibitory signaling from delta cells through the hormone somatostatin resulting in suppressed glucagon secretion.
A number of pharmacological compounds have been developed to modulate glucagon secretion. We evaluated the effect of these compounds on SC-alpha cells to determine how well SC-alpha cells recapitulate the functional response of alpha cells (FIG. 4C).
Human islets or differentiated polyhormonal or SC-alpha cells were washed twice in low-glucose (2.8 mM) Krebs Ringer (KRB) buffer (128 mM NaCl, 5 mM KCl, 2.7 mM CaCl2, 1.2 mM MgSO4, 1 mM Na2HPO4, 1.2 mM KH2PO4, 5 mM NaHCO3, 10 mM HEPES, 0.1% BSA in milliQ). Cells were then loaded into 24 well transwell inserts and fasted in low glucose KRB for 1 hour at 37° C. Clusters were washed once in low glucose KRB and then incubated in low glucose KRB for 1 hour at 37° C. […] Cells were then dispersed and counted using a vicell automated cell counter. Collected supernatants were analyzed by ELISA for Insulin and/or glucagon and normalized to cell number.

[3] = stage 6 SC-beta cells treated with PdbU

Compound | percentage of cells expressing pro/glucagon [1] | percentage of polyhormonal cells (cells expressing both pro/insulin and pro/glucagon) [1] | percentage of pro/insulin expressing cells [1] | percentage of Nkx6.1/C-peptide co-positive cells (number of beta cells) ([2]; PdbU for 14 days during stage 6) | percentage of monohormonal alpha cells in the SC-beta differentiation [2, 3] | polyhormonal side population in the SC-beta differentiation [2, 3] | population of polyhormonal cells induced to reduce insulin expression (polyhormonal cells; 28 day treatment, stage 6, vs. 23±3% (comparison)) | percentage of monohormonal SC-alpha cells after withdrawal of PdbU (polyhormonal cells; cultured in the absence of PdbU for 7 days) | glucagon secretion from SC-alpha cells (SC-alpha cells)
CCCC(=O)O[C@@H]1[C@@H](C)[C@@]2(O)[C@@H](C=C(CO)C[C@]3(O)C(=O)C(C)=C[C@@H]23)[C@@H]2C(C)(C)[C@]12OC(=O)CCC [PdbU] | increase | significantly reduced | significantly decrease | did not have a significant effect | increased | reduced | 46±4% | did not significantly reduce | 
COc1ccccc1OCC(O)CN1CCN(CC(=O)Nc2c(C)cccc2C)CC1 (stereo not drawn) [ranolazine] |  |  |  |  |  |  |  |  | increase glucagon secretion
